Where a name gives a salt, the structure may show the parent alone.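 Growth conditions: 96-well plates. Treatment: test compound, 48 hours, 5 concentrations. Analysis: linear interpolation between bracketing concentrations; unreached endpoints set to highest concentration. GI50: concentration for 50% inhibition of growth.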 Calls of active or inactive are those of the source. Cut-off read from the data, not from the text of the source: active = GI50 up to about 1.1 µM and inactive = higher.
How the values were obtained:
Test in all cases: DTP human tumour cell line panel, 48 h
[1] = test system: 786-0
[2] = test system: A498
[3] = test system: BT-549
[4] = test system: CCRF-CEM
[5] = test system: COLO 205
[6] = test system: HCT-15
[7] = test system: HOP-62
[8] = test system: HOP-92
[9] = test system: HT-29
[10] = test system: Hs-578T
[11] = test system: MCF7
[12] = test system: MDA-MB-435
[13] = test system: MOLT-4
[14] = test system: NCI-H226
[15] = test system: RPMI-8226
[16] = test system: SF-295
[17] = test system: SK-MEL-2
[18] = test system: SK-OV-3
[19] = test system: SN12C
[20] = test system: T47D

Measured: GI50

Fc1ccc(C(=C2CCN(CCc3ccc4[nH]c(=S)[nH]c4c3)CC2)c2ccc(F)cc2)cc1
3.15 µM: [6]
inactive: [1] 1.86 µM | [2] 8.38 µM | [3] 5.98 µM | [4] 2.01 µM | [5] 1.72 µM | [7] 15.8 µM | [8] 2.62 µM | [9] 1.9 µM | [10] 10.9 µM | [11] 2.21 µM | [12] 1.79 µM | [13] 3 µM | [14] 22 µM | [15] 2.73 µM | [16] 6.92 µM | [17] 2.7 µM | [18] 18.7 µM | [19] 4.52 µM | [20] 1.92 µM

Cc1cc(N)c2ccccc2[n+]1CCCCCCCCCC[n+]1c(C)cc(N)c2ccccc21 [DEQUALINIUM CHLORIDE]
inactive: [1] 2.69 µM | [2] 5.19 µM | [4] 2.11 µM | [5] 1.33 µM | [7] 1.87 µM | [8] 3.62 µM | [10] 1.96 µM | [14] 3.37 µM | [16] 1.28 µM | [17] 1.89 µM | [18] 2.39 µM | [19] 1.45 µM
4.31 µM: [6]
active: [3] 1 µM | [9] 1 µM | [11] 0.423 µM | [12] 0.541 µM | [13] 0.964 µM | [15] 0.375 µM | [20] 0.948 µM

CC1(C)CCCCCC(O)C(O)CCC(C)(C)C1=O (stereo not given)
> 100 µM: [6]
inactive: [1] > 100 µM | [2] > 100 µM | [3] > 100 µM | [4] > 100 µM | [5] > 100 µM | [7] > 100 µM | [8] > 100 µM | [9] > 100 µM | [10] > 100 µM | [11] > 100 µM | [12] > 100 µM | [13] > 100 µM | [14] > 100 µM | [15] > 100 µM | [16] > 100 µM | [17] > 100 µM | [18] > 100 µM | [19] > 100 µM | [20] > 100 µM

Cc1ccc(C(=O)/C=C(O)/C(O)=C/C(=O)c2ccc(C)cc2C)c(C)c1
inactive: [1] 2.03 µM | [2] 2.04 µM | [3] 1.64 µM | [5] 1.82 µM | [7] 1.58 µM | [8] 2.9 µM | [9] 2.48 µM | [10] 2.21 µM | [11] 2.02 µM | [12] 2.01 µM | [13] 1.98 µM | [14] 2.04 µM | [15] 2.01 µM | [16] 1.75 µM | [17] 1.87 µM | [18] 1.94 µM | [19] 2.1 µM | [20] 2.05 µM
active: [4] 0.175 µM
2 µM: [6]

O=C(O)/C(=C\c1ccccc1)Cc1ccccc1
inactive: [1] > 100 µM | [2] > 100 µM | [3] > 100 µM | [4] > 100 µM | [5] > 100 µM | [7] > 100 µM | [8] > 100 µM | [9] > 100 µM | [10] > 100 µM | [11] > 100 µM | [12] > 100 µM | [13] > 100 µM | [14] > 100 µM | [15] > 100 µM | [16] > 100 µM | [17] > 100 µM | [18] > 100 µM | [19] > 100 µM | [20] > 100 µM
> 100 µM: [6]

CC(C)=CCCC(C)C1=C(O)C(=O)C(C)=CC1=O (stereo not given)
active: [4] 0.614 µM | [15] 0.838 µM
2.23 µM: [6]
inactive: [1] 5.86 µM | [2] 18.7 µM | [3] 14.6 µM | [5] 5.75 µM | [7] 18.9 µM | [8] 1.73 µM | [9] 16.3 µM | [10] 25.1 µM | [11] 5.74 µM | [12] 16.7 µM | [13] 1.8 µM | [14] 20.8 µM | [16] 34 µM | [17] 17.7 µM | [18] 28.1 µM | [19] 14.7 µM | [20] 2.07 µM

C=CCN(CCNS(=O)(=O)c1ccc(C)cc1)S(=O)(=O)c1ccc(C)cc1
> 55.5 µM: [6]
inactive: [1] 61.8 µM | [2] 6.07 µM | [3] 22.4 µM | [4] > 55 µM | [5] > 44.5 µM | [7] 27.9 µM | [8] > 69.3 µM | [9] 9.77 µM | [10] > 52.4 µM | [11] > 51.9 µM | [12] > 57.9 µM | [13] > 45.7 µM | [14] > 71.3 µM | [15] 24.6 µM | [16] 14 µM | [17] 34 µM | [18] 12.9 µM | [19] > 72.6 µM | [20] > 51.1 µM

COc1ccc(C(=O)Cn2c(C(C)=O)nc3ccccc32)cc1
6.35 µM: [6]
inactive: [1] 6.59 µM | [2] 67 µM | [3] 8.45 µM | [4] 5.93 µM | [5] 18.3 µM | [7] 12.1 µM | [8] 12.7 µM | [9] 23.4 µM | [10] 23.2 µM | [11] 4.58 µM | [12] 13.5 µM | [13] 4.98 µM | [14] > 74 µM | [15] 14.6 µM | [16] 13.1 µM | [17] 12.7 µM | [18] 14.7 µM | [19] 16.4 µM | [20] 5.28 µM

O=C1c2cccc3cccc(c23)C(=O)N1CCCNCCCCNCCCNCCCN1C(=O)c2cccc3cccc(c23)C1=O [BISNAPHTHALIMIDOPROPYL SPERMIDINE TRIHYDROBROMIDE]
inactive: [3] 1.64 µM | [16] 5.92 µM | [17] 1.22 µM | [18] 1.5 µM | [20] 1.12 µM
11.7 µM: [6]
active: [1] 0.175 µM | [2] 0.977 µM | [4] 0.111 µM | [5] 0.348 µM | [7] 1.1 µM | [8] 0.935 µM | [9] 0.231 µM | [10] 0.0378 µM | [11] 0.0343 µM | [12] 0.74 µM | [13] 0.0333 µM | [14] 0.505 µM | [15] 0.355 µM | [19] 0.521 µM

From ChEMBL document CHEMBL1201862, “PubChem BioAssay data set” (2004)
